Test results from patent US10004688B2, “Liposomal mupirocin” (priority 2014, dated 2018).
In brackets after ≈: the same amount, converted by molar mass.

What was measured:
[1] = system: Group A streptococcus (GAS); test: Mice necrotizing fasciitis model; assay type: in vivo, Female BALB/c mice
Protocol: Necrotizing fasciitis model was performed based on a published method [Hidalgo-grass, C. et al. Mechanisms of disease Effect of a bacterial pheromone peptide on host chemokine degradation in group A streptococcal necrotising soft-tissue infections. 363, (2004)]. Specifically the working protocol included:
Female BALB/c mice, 10 g weight and at the age of 3-4 weeks were selected.
1st Day: Bacteria were seeded on blood-agar plates and incubated at 37° C. THY medium was prepared, autoclaved and kept at room temperature.
2nd Day: plates were taken from the incubator and placed at room temperature.
4th Day: bacteria were transferred from the plates to 5 ml THY tube (warmed in the incubator).
5th Day: 2 ml bacteria were transferred from the 5 ml THY tube to 50 ml THY tube. Bacteria were grown to early logarithmic phase (O.D600=0.3-0.4), washed with PBS and suspended in PBS to O.D600=0.8 which correlates to 10^8 bacteria in injected volume of 100 μl. The obtained bacteria volume was divided to vials according to the number of mice in the study. Each dilution was seeded on blood agar plates and counting colonies on the day after.
On the 5th day, mice hair was removed from the center of mice back and bacteria were injected subcutaneously.
Disease condition was followed according to the Table 2A below.
Specifically, Group A streptococcus (GAS) injection (0.75×10^8 CFU) was administered to all study groups. The drug was administered by IV injection of 100 μl formulation. Eachliposomal mupirocin dose was 45 mg/kg. Each free mupirocin dose was 50 mg/kg.

[2] = Mupirocin solubility in buffers and solubilizer solutions; assay type: physicochemical
Protocol: Liposomes were prepared using the calcium acetate (CA) gradient method [Clerc S, Barenholz Y. 1995. Loading of amphipathic weak acids into liposomes in response to transmembrane calcium acetate gradients. Biochim Biophys Acta 1240:257-265]. Specifically, lipids in a mole ratio of 55:40:5 HSPC: cholesterol: mPEG DSPE were mechanically hydrated by stirring at 65° C. with 200 mM calcium acetate pH 5.5, at a weight ratio of 1:9. The liposomal dispersion was downsized by stepwise extrusion by the Northern Lipids (Burnaby, BC, Canada) extruder using polycarbonate filters starting with 3 times extrusion through a 400 nm pore size membrane, then 3 times through a 100 nm pore size membrane, and finally 10 times through a 50 nm pore size membrane. Liposomes were then dialyzed using a Cellu Sep regenerated cellulose membrane (Membrane Filtration Products, USA), against a 10% sucrose solution. In the case of HPCD-containing liposomes, lipids were hydrated by 200 mM calcium acetate pH 5.5 containing 15% (w/w) HPCD. Control HPCD liposomes were prepared by hydrating lipids with 15% (w/w) HPCD in phosphate buffer 200 mM pH 6.3. All other preparation steps (downsizing and dialysis) were the same as described above. Remote loading was performed by incubating at 65° C. for 10 min a solution of the drug with the liposome dispersion at a volume ratio of 1:1. Liposomes used for loading were freshly prepared and used within one week. Drug loading solutions were prepared in 200 mM phosphate buffer pH 6.3. High mupirocin concentrations in phosphate buffer pH 6.3 (28 mM) were achieved by vigorous stirring and 10 min sonication in a bath sonicator. Loading was also tested from 1 to 10% (w/w) HPCD solutions in phosphate buffer pH 6.3. High mupirocin concentration (28 mM) in 1% HPCD solution was achieved by vigorous stirring and sonication as described for phosphate buffer. Mupirocin solutions in higher HPCD concentrations (2.5-10%) were prepared by stirring only. Loading was also performed from propylene glycol (PG) and from polyethylene glycol (PEG) 400 solutions. In these cases, a stock solution of 100 mM mupirocin was prepared and diluted to the desired concentration with 200 mM phosphate buffer pH 6.3.
Mupirocin is not freely soluble in aqueous medium. Being a weak acid, its solubility increases with pH. Mupirocin was soluble in phosphate buffer 200 mM pH 6.3 up to a concentration of 15 mM. […] However, high concentrations (≥28 mM) in 1% HPCD required 10 min sonication in order to achieve a clear solution. It should be noted that the chromatographic profile of mupirocin in the different solutions tested was similar to that of a standard solution.

[3] = system: gram-positive bacteria, including the methicillin-resistant Staphylococcus aureus (MRSA) and Streptococcus pneumoniae; details: gram-positive bacteria incl. MRSA and Streptococcus pneumoniae; cited from earlier work
[4] = literature data, free mupirocin; cited from earlier work
Neisseria gonorrhoeae = details: cited from earlier work
serum protein = details: cited from earlier work
[5] = group 2: free drug 50 mg/kg IV 3 h before and 3 and 24 h after GAS injection (150 mg/kg/day), 24 h after challenge
[6] = group 2: free drug 50 mg/kg IV 3 h before and 3 and 24 h after GAS injection (150 mg/kg/day), 48 h after challenge
[7] = group 2: free drug 50 mg/kg IV 3 h before and 3 and 24 h after GAS injection (150 mg/kg/day), 72 h after challenge
[8] = group 2: free drug 50 mg/kg IV 3 h before and 3 and 24 h after GAS injection (150 mg/kg/day), 96 h after challenge

## C/C(=C\C(=O)OCCCCCCCCC(=O)O)C[C@@H]1OC[C@H](C[C@@H]2O[C@H]2[C@@H](C)[C@H](C)O)[C@@H](O)[C@H]1O [Mupirocin, 9-[(E)-4-[(2S,3R,4R,5S)-3,4-dihydroxy-5-[[(2S,3S)-3-[(2S,3S)-3-hydroxybutan-2-yl]oxiran-2-yl]methyl]oxan-2-yl]-3-methylbut-2-enoyl]oxynonanoic acid]
[1]; group 2: free drug 50 mg/kg IV 3 h before and 3 and 24 h after GAS injection (150 mg/kg/day), 24 h after bacteria challenge
  % weight change: −7%
[1]; [5]
  Average mice weight: 12.5 g
  Description of mice movement: Regular
  Eyes appearance: Open eyes
  Hair appearance: Rough hair
  Mice mortality: 0
  Wound appearance: No wound
[1]; [6]
  Average mice weight: 11.7 g
  Description of mice movement: Regular
  Eyes appearance: Open eyes
  Hair appearance: Rough hair
  Mice mortality: 0
[1]; [7]
  Average mice weight: 12.3 g
  Description of mice movement: Regular
  Eyes appearance: Open eyes
  Mice mortality: 0
[1]; [8]
  Average mice weight: 12.7 g
  Description of mice movement: Regular
  Eyes appearance: Open eyes
  Mice mortality: 0
[1]; mice, GAS s.c. challenge, IV treatment
  mortality: did not show mortality
[1]; mice, GAS s.c. challenge, IV treatment, listed as free drug
  development of disease / symptoms: developed the disease 24 h after bacteria challenge
[1]; mice, GAS s.c. challenge, IV treatment, listed as free mupirocin
  development of disease / symptoms: developed the disease symptoms
[2]; HPCD solution in phosphate buffer, aqueous with cosolvent or surfactant or cyclodextrin, thermodynamic from solid, HPCD solutions of 1-10% w/w in phosphate buffer pH 6.3
  solubility: > 34 mM
[2]; PEG 400, organic solvent or mixture
  solubility: ~100 mM
[2]; aqueous buffer, thermodynamic from solid, phosphate buffer 200 mM pH 6.3, without vigorous stirring and sonication
  solubility: ≤ 15 mM
[2]; aqueous buffer, thermodynamic from solid, phosphate buffer pH 6.3, after vigorous stirring and sonication
  solubility at 10 min: ~28 mM (≈ 14 mg/mL)
[2]; calcium acetate solution, aqueous buffer, calcium acetate 200 mM pH 5.5
  solubility: < 2000 µg/mL
[2]; organic solvent or mixture, PG (propylene glycol)
  solubility: ~100 mM
[2]; pH 5.5
  increase of solubility: not more than 10 fold
[3]
  activity in vitro: active in vitro
[4]
  elimination half-life: 20 to 40 min
Neisseria gonorrhoeae
  MIC: 0.05 µg/mL (≈ 0.0999 µM)
Serum protein
  protein binding affinity: 96.5%
